Measured values taken from PubChem BioAssay AID608 (Sanford-Burnham Center for Chemical Genomics, 2007).
Activity calls are given as the source filed them. The rule behind the calls is not given here.

Target: Peptidyl-prolyl cis-trans isomerase FKBP1A (Homo sapiens) (UniProt P62942)
Assay: FKBP12 binders, biophysical, NMR detection (AID 608)
Settings: NMR binding, purified FKBP12

Sequence of Peptidyl-prolyl cis-trans isomerase FKBP1A (Homo sapiens) (P62942 whole entry, looked up): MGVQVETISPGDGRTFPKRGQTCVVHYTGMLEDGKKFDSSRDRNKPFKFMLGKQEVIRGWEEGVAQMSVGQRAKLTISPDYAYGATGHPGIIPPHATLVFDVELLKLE

SMILES	Kd
Cc1nnsc1C(=O)Nc1cccc(S(N)(=O)=O)c1	> 4 mM (inactive)
COc1ccccc1CNc1nc2nc(C)cc(=O)n2[nH]1	> 4 mM (inactive)
Cc1sc2nc(SC3CCOC3=O)[nH]c(=O)c2c1C (stereo not given)	> 4 mM (inactive)
Cc1oc2nc3c(c(=O)[nH]c(=O)n3C)n2c1C	> 4 mM (inactive)
O=C(O)C1COc2ccccc2C1 (stereo not given)	> 4 mM (inactive)
COc1ccccc1-c1nc(-c2ccc(C)nc2OC)no1	> 4 mM (inactive)
NC(=O)Cn1nc(-c2ccc(F)cc2)ccc1=O	> 4 mM (inactive)
COCC(=O)Nc1cccc2ccccc12	> 4 mM (inactive)
CC(C)=CCCC1(C)C=Cc2c(O)c3c(c(CC=C(C)C)c2O1)OC12C(=CCCC1C(C)(C)O[C@@]2(C/C=C(\C)C(=O)O)C(=O)O)C3=O (stereo not given in full)	> 4 mM (inactive)
O=C1C2CCCCC2C(=O)N1Cc1cccnc1 (stereo not given)	> 4 mM (inactive)
Nc1cccc2cccnc12	> 4 mM (inactive)
NC(=O)c1ccc(-c2ccccn2)s1	> 4 mM (inactive)
Cc1nc2ccccc2n1S(=O)(=O)N1CCCCC1	inactive
Cn1nnc2cc(C(=O)Nc3cccnc3)ccc21	> 4 mM (inactive)
CC(=O)/C=C\[C@@H]1[C@@]2(C)CCCC(C)(C)C2CC[C@@]1(C)O (stereo not given in full)	> 4 mM (inactive)
COC(=O)Cc1cc(=O)n(-c2nc3ccccc3s2)[nH]1	> 4 mM (inactive)
O=C(O)c1cc(=O)c2cccc(O)c2[nH]1	> 4 mM (inactive)
CC(=O)N1CC2(C)CN(C(C)=O)CC(C)(C1)C2	> 4 mM (inactive)
O=C1NC(=S)N/C1=C/c1ccsc1	> 4 mM (inactive)
CSCCNC(C)=O	> 4 mM (inactive)
CC1(C)Cc2c(C#N)c(N)n(-c3ccccc3)c(=O)c2CO1	> 4 mM (inactive)
O=S(=O)(Nc1ccc(F)cc1)N1CCCCC1	inactive
CCC[C@H]1CC2=C(C[C@@H](CC)CC3=C1C(=O)OC3=O)C(=O)OC2=O	> 4 mM (inactive)

SMILES	Kd
NC(=O)CSCc1c(Cl)cccc1Cl	> 4 mM (inactive)
CCOC(=O)C1C(=O)C2CCN1CC2 (stereo not given)	> 4 mM (inactive)
Nc1nc(-c2ccc(F)c(F)c2)cs1	> 4 mM (inactive)
O=C(/C=C/c1ccccc1)c1ccc(O[C@@H]2O[C@H](CO)[C@@H](O)[C@H](O)[C@H]2O)cc1O	> 4 mM (inactive)
NC(=O)CSc1nnc2ccc(-c3ccco3)nn12	> 4 mM (inactive)
Nc1cccc(C(=O)Nc2ccc(N)cc2Cl)c1	> 4 mM (inactive)
O=C1C=CC2=C3c4cc(O)c(O)cc4CC3(O)COC2=C1O (stereo not given)	> 4 mM (inactive)
Cc1ccc(CN2CCN(C(=O)C3CCC3)CC2)cc1	> 4 mM (inactive)
CN1C(CC(=O)c2ccccc2)CCCC1CC(O)c1ccccc1 (stereo not given)	> 4 mM (inactive)
COc1cc(OC)c2ccc(=O)oc2c1	> 4 mM (inactive)
O=C1CC(c2c[nH]c3ccccc23)C(=O)N1 (stereo not given)	> 4 mM (inactive)
CC(=O)Nc1cc(N2C(=O)C=CC2=O)ccc1Cl	> 4 mM (inactive)
Cc1occc1C(=O)Nc1nnc(C2CCCCC2)s1	> 4 mM (inactive)
O=c1[nH]c2c(c(=O)n1C1CCCCC1)CCC2	> 4 mM (inactive)
Cn1ccnc1SCc1cc(=O)[nH]c2ccccc12	> 4 mM (inactive)
CC(C)c1c(O)c(-c2cc3c(c(C(C)C)c2O)CCC2C(C)(C)CCC[C@]32C)cc2c1CCC1C(C)(C)CCC[C@]21C (stereo not given in full)	> 4 mM (inactive)
S=C(c1ccc(N2CCOCC2)cc1)N1CCCCC1	> 4 mM (inactive)
OCc1csc(-c2ccccc2)n1	> 4 mM (inactive)
CC(=O)C1CCC2C3CCC4C[C@H](O)CCC4(C)C3C[C@H](O)C12C (stereo not given in full)	> 4 mM (inactive)
CC(=O)Nc1ccc(S(=O)(=O)Nc2cc(C)on2)cc1	> 4 mM (inactive)
O=S(=O)(O)c1nc2ccccc2[nH]1	> 4 mM (inactive)
Nc1nsc(-c2ccccc2)n1	> 4 mM (inactive)
Nc1cc(=O)[nH]c(=S)n1-c1cccc(C(F)(F)F)c1	> 4 mM (inactive)

SMILES	Kd
CCS(=O)(=O)N1CCN(c2ccccc2F)CC1	> 4 mM (inactive)
Cn1cc(Cl)c(C(=O)NC2CCCC2)n1	> 4 mM (inactive)
CNC(C)[C@H](O)c1ccccc1 (stereo not given in full)	> 4 mM (inactive)
COCCn1c(N)nc2c1c(=O)[nH]c(=O)n2C	> 4 mM (inactive)
O=C(c1ccccc1)N1CCN(c2ccccc2F)CC1	> 4 mM (inactive)
CC(=O)Oc1ccc(O)cc1	> 4 mM (inactive)
NC1=NC(=O)/C(=C/c2ccc(O)c(Cl)c2)S1	> 4 mM (inactive)
NC(=O)C12CC3CC(C1)C(=O)C(C3)C2	> 4 mM (inactive)
O=C(CC1Nc2ccccc2NC1=O)Nc1ccc(O)cc1 (stereo not given)	> 4 mM (inactive)
CC(C)(O)[C@@H]1Cc2cc3ccc(=O)oc3cc2O1	> 4 mM (inactive)
COC(=O)c1cccc2cc[nH]c12	> 4 mM (inactive)
C=CCN1CC[C@]23c4c5ccc(O)c4OC2C(=O)CC[C@@]3(O)[C@H]1C5 (stereo not given in full)	> 4 mM (inactive)
COc1cc2c(cc1O)CC1c3c(cc(O)c(OC)c3-2)CCN1C (stereo not given)	> 4 mM (inactive)
O=c1[nH]c(O)c(C=NC2CC2)c(=O)[nH]1	> 4 mM (inactive)
Cc1ccc(C(=O)NCCO)c(Cl)c1	> 4 mM (inactive)
CC(=O)Oc1cc2c(c(C)c1OC(C)=O)CC=C1[C@@]2(C)CC[C@@]2(C)C3C[C@](C)(C(=O)O)CC[C@]3(C)CC[C@]12C (stereo not given in full)	> 4 mM (inactive)
Cc1ccc(S(=O)(=O)CC(=O)N(C)C)cc1	> 4 mM (inactive)
NC(=O)C1CCN(C(=S)c2cccs2)CC1	> 4 mM (inactive)
O=C(O)C1CC2CC1CCC2O (stereo not given)	> 4 mM (inactive)
COC(=O)c1cccc(N)c1	> 4 mM (inactive)
Cc1cc(C)nc(/N=C(\N)N2CCc3ccccc32)n1	> 4 mM (inactive)
Nc1nc(-c2ccc(Cl)cc2)nn1C(=O)c1cccnc1	> 4 mM (inactive)
C1CCN2C[C@@H]3C[C@H](CN4CCCC[C@@H]34)[C@H]2C1	> 4 mM (inactive)

SMILES	Kd
Cn1cnc2c(=O)[nH]cc([N+](=O)[O-])c21	> 4 mM (inactive)
Cc1n[nH]c(=S)[nH]c1=O	> 4 mM (inactive)
COc1cnn(-c2ccccc2)c(=O)c1N(C)C	> 4 mM (inactive)
Cc1ccc(S(=O)(=O)CC(=O)N2CCCC2)cc1	> 4 mM (inactive)
Nc1ncnc2nc[nH]c12	> 4 mM (inactive)
NC1=NC(=O)CC(C(=O)Nc2ccccc2)S1 (stereo not given)	> 4 mM (inactive)
Cc1cc(=O)n(CC(C)C)c(O)c1C#N	> 4 mM (inactive)
O=C(O)Cn1c(C(F)(F)F)nc2ccccc21	> 4 mM (inactive)
Cn1nnc2cc(CO)ccc21	> 4 mM (inactive)
CC(C)NC(=S)NCc1cnn(C)c1	> 4 mM (inactive)
O=C1CC(=O)N(Cc2ccco2)C(=S)N1	> 4 mM (inactive)
C=C1C2CC[C@H]3[C@]4(C)C[C@H](OC5OC(CO)C(OS(=O)(=O)O)C(OS(=O)(=O)O)C5OC(=O)CC(C)C)C[C@@H](C(=O)O)[C@H]4CC[C@]3(C2)[C@H]1O (stereo not given in full)	> 4 mM (inactive)
NC(=O)CNC(=O)c1ccc2ccccc2n1	> 4 mM (inactive)
Fc1ccc2onc(C3CCNCC3)c2c1	> 4 mM (inactive)
Nc1ccc(Cc2ccc(N)cc2)cc1	> 4 mM (inactive)
CCc1noc(C)c1C(=O)N1CCOCC1	> 4 mM (inactive)
Clc1ccc(SCCn2cncn2)cc1	> 4 mM (inactive)
O=C(O)CC1NCCNC1=O (stereo not given)	> 4 mM (inactive)
Nc1cc(-c2ccco2)[nH]n1	> 4 mM (inactive)
Cc1c(C(=O)Nc2ccccn2)oc2ccccc12	> 4 mM (inactive)
NC(=O)c1ccc(NC(=O)C2CC2)cc1	> 4 mM (inactive)
O=C1CN(C(=O)c2ccccc2)c2ccccc2N1	> 4 mM (inactive)
CC1(C)Cc2nc3[nH]c(=S)[nH]c(=O)c3cc2CO1	> 4 mM (inactive)

SMILES	Kd
NCC(N)C(=O)c1ccccc1 (stereo not given)	> 4 mM (inactive)
O=C1CSC(=Nc2ccc(C(=O)O)cc2)N1	> 4 mM (inactive)
O=C(O)CC(O)c1nc2ccccc2[nH]1 (stereo not given)	> 4 mM (inactive)
O=S(=O)(CCN1CCCC1)c1ccccc1	> 4 mM (inactive)
COC(=O)c1cccc(Cn2nnc3ccccc3c2=O)c1	> 4 mM (inactive)
O=C(NCC1CCCCC1)c1ccco1	> 4 mM (inactive)
CN1C(=O)/C(=C/c2ccc(O)cc2O)SC1=S	> 4 mM (inactive)
O=C(O[C@@H]1Cc2c(O)cc(O)cc2O[C@@H]1c1ccc(O)c(O)c1)c1cc(O)c(O)c(O)c1	> 4 mM (inactive)
Nc1cc(C(=O)O)ccc1N1CCCCCC1	> 4 mM (inactive)
CC(=O)Nc1ccc(S(=O)(=O)N(C)C)cc1	> 4 mM (inactive)
Nc1ccc(S(=O)(=O)Nc2ccc(F)cc2F)cc1	> 4 mM (inactive)
CS(=O)(=O)Cc1ccccc1	> 4 mM (inactive)
CCC(=O)NC(=S)Nc1ccc(O)cc1	> 4 mM (inactive)
Cc1c(CO)cnn1-c1ccccc1	> 4 mM (inactive)
Cc1cc2ncn(S(=O)(=O)N3CCCCC3)c2cc1C	> 4 mM (inactive)
C[C@H]1O[C@@H](O[C@H]2[C@@H](O)C[C@H](O[C@H]3[C@@H](O)C[C@H](O[C@H]4CC[C@]5(C)C6C[C@@H](O)[C@]7(C)[C@@H](C8=CC(=O)OC8)CC[C@]7(O)C6CC[C@@H]5C4)O[C@@H]3C)O[C@@H]2C)C[C@H](O)[C@@H]1O (stereo not given in full)	> 4 mM (inactive)
C[C@@H]1CC[C@@]23CCC4(C)[C@@](C=CC5[C@@]6(C)CC[C@H](O)C(C)(C)C6CC[C@]54C)(OC2=O)C3[C@H]1C (stereo not given in full)	> 4 mM (inactive)
O=C(O)c1ccc2sccc2c1	> 4 mM (inactive)
O=C(Nc1c[nH]c(=O)[nH]c1=O)c1cccs1	> 4 mM (inactive)
CCCCCc1c2c(cc(O)c1C(=O)O)OC(=O)c1c(cc(OC)cc1C(=O)CCCC)O2	> 4 mM (inactive)
COc1ncccc1N	> 4 mM (inactive)
O=c1[nH]cc(S(=O)(=O)N2CCc3ccccc32)c(=O)[nH]1	> 4 mM (inactive)
Cn1cnc([N+](=O)[O-])c1Sc1ncnc2nc[nH]c12	> 4 mM (inactive)
